Test results reported in patent publication EP1180991B1, “GAMBOGIC ACID DERIVATIVES AS ACTIVATORS OF CASPASES AND INDUCERS OF APOPTOSIS” (Cytovia, Inc., priority 1999, dated 2000).

How the values were obtained:
T47D cells [1] = assay: Nuclear fragmentation, Syto16 DNA stain (Example 94); assay type: cell-based, human; conditions: 10 µM, 24 h (Fig. 2B)
Experimental: T47D cells were grown and plated as described in Example 90. The cells were treated with 10 µM of gambogic acid and the plate was incubated for up to 24 h at 37°C in a 5% CO2-95% humidity incubator. At 24 h, the cells were incubated with a live cell nucleic acid stain, Syto16 (Molecular Probes) which stains DNA. After 2 washes with PBS, cells were examined under a fluorescence microscope. […] Nuclear fragmentation is a clear indicator of cellular apoptosis.

KB-V1 = conditions: Lin et al. 1993; cited from earlier work
T47D cells [2] = assay: PARP cleavage, western blot (Example 98); assay type: cell-based, human
Experimental: (§1) Cleavage of the enzyme poly(ADP)ribose polymerase (PARP) by caspase-3 and related proteases is considered to be one of the molecular hallmarks of caspase-mediated apoptosis. Therefore, the ability of gambogic acid to induce PARP cleavage in four different human tumor cell lines (Jurkat cells, HL-60 cells, T47D cells and PC3 cells) was determined.
(§2) […] Control cultures were treated with a drug vehicle (DMSO), or the well-characterized apoptosis inducer, staurosporine. At the end of the apoptosis induction period, the cells were harvested, washed once with PBS, quick-frozen on dry ice, and stored at -80° C. The cells were then lysed in a standard immunoblotting lysis buffer and samples of the lysates were electrophoresed on 4% to 20% gradient polyacrylamide gels. The proteins in the gels were then transferred to PVDF membranes and probed with a commercially-available rabbit polyclonal antibody to PARP.

PC3 cells = assay: PARP cleavage, western blot (Example 98); assay type: cell-based, human
Experimental: as §1, §2

T47D cells [3] = assay: Morphological change of cells, phase contrast (Example 93); assay type: cell-based, human; conditions: 2.5 µM
Experimental: In addition, apoptotic adherent cells in culture lose their ability to remain attached to the culture dish. The ability of gambogic acid to trigger these morphological changes in T47D cells was investigated.
60 mm culture dishes were seeded with 750,000. T47D cells and the cultures were incubated under normal growth conditions (complete medium with 10% FBS) for 24 h. The cells were then treated with 2.5 µM of gambogic acid and further incubated under normal growth conditions for 2 or 6 h. Morphological changes were documented by photographing the cells under phase contrast illumination.

PC-3 = assay: Caspase cascade activation assay (Example 90); assay type: cell-based, human; conditions: PC-3, 24 h incubation
Experimental: (§3) Human breast cancer cell lines T-47D and ZR-75-1, human prostate cancer cell line PC-3, human leukemia cancer cell line HL-60 and human non-transformed fibroblast cell line MRC-5 cells were grown according to media component mixtures designated by The American Type Culture Collection + 10% FCS (Life Technologies, Inc.), in a 5% CO2 -95% humidity incubator at 37° C. T-47D, ZR-75-1 and PC-3 cells were maintained at a cell density between 30 and 80% confluency and for HL-60 at a cell density of 0.1 to 0.6 x 10^6 cells/ml. Cells were harvested at 600xg and resuspended at 0.65 x 10^6 cells/ml into appropriate media + 10% FCS. […] The samples were mixed by agitation and incubated at room temperature.
(§4) The EC50 (nM) was determined by a sigmoidal dose-response calculation (Prism 2.0, GraphPad Software Inc.). Caspase Activity and Potency

MRC-5 [4] = assay: Caspase cascade activation assay (Example 90); assay type: cell-based, human; conditions: MRC-5 non-transformed fibroblasts, 24 h incubation
Experimental: as §3, §4

T47D cells [5] = assay: Dose response of caspase activation, cancer cells versus normal fibroblasts (Example 96); assay type: cell-based, human; conditions: T47D versus MRC-5; 2 h dose response (Fig. 4)
Experimental: T47D cells and MRC-5 cells were maintained and harvested as described in Example 90. […] To determine the dose response of gambogic acid for inducing caspase activity, 5 µl of 20 µM gambogic acid in RPMI media was added to wells in triplicates. Two-fold serial dilutions were made for the lower concentrations. After incubation for 2 h, the samples were removed from the 5% CO2-95% humidity incubator and caspase activity was determined by addition of a fluorogenic substrate as described in Example 90.

[6] = Inhibition of cell proliferation (GI50) and cell death (LC50), CellTiter 96 (Example 91); assay type: cell-based, human; conditions: human, mrc-5 cells; MRC-5 non-transformed fibroblasts; 48 h; dose for 50% cell death
Experimental: (§5) T-47D, ZR-75-1, PC-3, human prostate cancer cell line DU-145, human non-small cell lung cancer cell line A-549, human small cell lung cancer cell line SHP-77, HL-60 and MRC-5 cells were grown and harvested as in Example 90. […] The samples were mixed by agitation and incubated at 37° C for 2-4 h in a 5% CO2-95% humidity incubator. […] This determines the possible background absorbance of the test compounds. No absorbance for gambogic acid or its analogs or derivatives was found at 490 nm. After the 2-4 h incubation, the samples were read for absorbance as above (ATest).
(§6) The samples were mixed by agitation and incubated at 37° C for 2-4 h in a 5% CO2-95% humidity incubator. Absorbance was read as above, (AT=0) defining absorbance for initial cell number used as baseline in GI50 determinations and (Amin) defining absorbance for media alone used as baseline in LC50 determinations.
(§7) GI50 (dose for50%inhibition of cell proliferation) 50 = 100 x [(ATest-AT = 0)/(Amax-AT = 0)] [formula] LC50 (dose for50%cell death) 50 = 100 x [(ATest-Amin)/(AT = 0-Amin)] [formula]

MRC-5 [7] = assay: as above; assay type: cell-based, human; conditions: Homo sapiens, MRC5; MRC-5 non-transformed fibroblasts; 48 h; dose for 50% inhibition of cell proliferation; read-out: GI50
Experimental: as §5, §6, §7

[8] = 0.16 to 10 µM final, net RFU ratio to control

SMILES: CC(C)=CCC[C@]1(C)C=Cc2c(O)c3c(c(CC=C(C)C)c2O1)O[C@]12C(=C[C@@H]4C[C@H]1C(C)(C)O[C@@]2(C/C=C(/C)C(=O)O)C4=O)C3=O [Example 1, Gambogic Acid]
- nuclear fragmentation (T47D cells [1]): condensed and fragmented nuclei in a large population of the cells
- cytotoxicity (KB-V1): cytotoxic
- PARP cleavage (T47D cells [2]; 2.5 µM and 5 µM, 4 h (Fig. 5C)): almost complete PARP cleavage
- PARP cleavage (T47D cells [2]; 2.5 µM, 2 h (Fig. 5C)): moderate induction of PARP cleavage
- PARP cleavage (T47D cells [2]; 5 µM, 2 h (Fig. 5C)): almost complete PARP cleavage
- PARP cleavage (PC3 cells; 2.5 µM and 5 µM, 2 h (Fig. 5D)): neither concentration (2.5 µM and 5 µM) of drug was effective
- PARP cleavage (PC3 cells; 5 µM, 4 h (Fig. 5D)): a moderate amount of PARP cleavage product
- apoptotic morphological changes (T47D cells [3]; 2 h (Fig. 1B)): many of the cells have taken on a rounded, phase-bright morphology
- apoptotic morphological changes (T47D cells [3]; 6 h (Fig. 1C)): most of the cells in the culture are rounded up and are beginning to detach from the dish
- EC50 (PC-3; Homo sapiens, caspase activation, read-out: EC50): 1500 nM
- caspase activity (Ratio) (PC-3; [8]): 2.1
- EC50 (MRC-5 [4]; Homo sapiens, MRC5, caspase activation, read-out: EC50): 1410 nM
- caspase activity (Ratio) (MRC-5 [4]; [8]): 17.8
- sensitivity to induction of caspase activity (T47D cells [5]): more sensitive to induction of caspase activity than a normal fibroblast cell line MRC-5
- CC50 at 48 h [6]: 500 nM
- GI50 (MRC-5 [7]): 400 nM
